According to patent US10570179B2, “Substituted urea depsipeptide analogs as activators of the CLPP endopeptidase” (priority 2016, dated 2020):
In brackets after ≈: the same amount, converted by molar mass. Read-outs that look alike come from different tables or passages of the source. Numbered stars: 1 amine (or outer) side, 2 acyl side, 3 side chain; on linkers, the order of the positions; unused ones are H or OH. Bridge positions count the residues as written; N and C are the ends. Square brackets hold non-standard residues; d marks the D form. Peptide text beside a SMILES is read from it. * marks the point of attachment. X5 = O=C([C@@H]1C[C@@H](OP(=O)(O)O)CN1[*:1])[*:2]; Phe(3-Me) = Cc1cccc(C[C@H](N)C(=O)O)c1; Pro(4S-Me) = C[C@@H]1CN[C@H](C(=O)O)C1; NH(4-Cl-2-F-phenyl) = Fc1cc(Cl)ccc1N*; Pro(4R-Me) = C[C@H]1CN[C@H](C(=O)O)C1; X1 = O=C([C@@H]1CSCCN1[*:1])[*:2]; Hyp = O=C(O)[C@@H]1C[C@@H](O)CN1; NH(4-Me-phenyl) = Cc1ccc(N*)cc1; aThr = C[C@H](O)[C@H](N)C(=O)O; Pip = O=C(O)[C@@H]1CCCCN1; X3 = c1cc2c(cc1N*)OCCO2; CO = O=C([*:1])[*:2]

Key:
S. aureus ΔClpP = assay: Minimal inhibitory concentration, microbroth dilution; assay type: cell-based, Staphylococcus aureus; conditions: MIC; ClpP inactivated
Outline: (§1)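 Following CLSI M7-A7 microbroth dilution, twofold serial dilutions of compound (top final concentration 200 μM) were combined with an equal volume of broth inoculum at about 10^5 cfu/mL. Plates were incubated aerobically at 37 °C overnight, and the MIC was the lowest concentration preventing visible growth.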

E. faecails = assay: as above; assay type: cell-based; conditions: Enterococcus faecalis
Outline: as §1

MRSA NRS70 = assay: as above; assay type: cell-based; conditions: Staphylococcus aureus
Outline: as §1

S. aureus ATCC 29213 = assay: as above; assay type: cell-based; conditions: Staphylococcus aureus
Outline: as §1

S. aureus USA 300 = assay: as above; assay type: cell-based; conditions: Staphylococcus aureus
Outline: as §1

[1] = Plasma protein binding, rapid equilibrium dialysis; assay type: in vitro ADME, human; conditions: 10 μM
Experimental: (§2) This assay determines plasma protein binding of a drug/compound and free drug concentration in plasma using rapid equilibrium dialysis, which allow the aqueous component of plasma containing the free drug/compound through a dialysis membrane (MWCO˜8,000).
(§3) Solutions were prepared at 10 mM in DMSO. Dulbecco's phosphate buffered saline (DPBS; pH 7.4) was obtained from Invitrogen (Carlsbad, Calif.). Single-Use RED (rapid equilibrium dialysis) device was obtained from Thermo scientific (Rockford, Ill.). Human plasma was obtained from Innovative Research INC (Novi, Michigan, Ill).
(§4) Sample preparation for plasma protein binding was modified from Waters' method. (Waters et al. (2008) J. Pharm. Sci. 97(10): 4586-95). The Teflon base plate with the RED inserts (MWCO 8 K) were allowed to use without any pre-condition the membrane inserts. Human plasma was thawed and centrifuged at 1000 rpm for 2 min to remove any particulates. Each compound was prepared at 10 μM in human plasma. This was done by adding 1 μL, of drug solution (10 mM in DMSO) to 1000 μL, of human plasma (0.1% DMSO). Spiked plasma solutions (300 μL) were placed into the sample chamber (indicated by the red ring) and 500 μL, of DPBS into the adjacent chamber. The plate was sealed and incubated at 37° C. on an orbital shaker (100 rpm) for 4 hours. After incubation, the seal was removed from the RED plate and the volume of the insert confirmed—little to no volume change occurred. Aliquots (50 μL) were removed from each side of the insert and dispensed into a 96-well deep plate. An equal volume of blank plasma or DPBS was added to the required wells to create analytically identical sample matrices (matrix matching). To each sample 200 μL, of ACN containing 4 μg/mL warfarin IS was added. All of the plates were sealed and mixed well at 600 rpm for 10 min and were centrifuged at 4000 rpm for 20 min. The supernatants (120 μL) were transferred to analytical plates for analysis by LCMS. Conditions for Waters ACQUITY-UPLC-MS-UV system were described separately. The test compound concentrations were quantified in both buffer and plasma chambers via peak areas relative to the internal standard. The percentage of the test compound bound to plasma was calculated on following equations: % Free=(Concentration buffer chamber/concentration plasma chamber)×100% and % Bound=100%-% Free.

[2] = Plasma protein binding, rapid equilibrium dialysis; assay type: in vitro ADME, mouse
Experimental: as §2, §3, §4

[3] = MIC, read-out: Minimal Inhibitory Concentrations (μM) E. faecails
[4] = MIC, read-out: Minimal Inhibitory Concentrations (μM) MRSA NRS70
[5] = ATCC29213, MIC, read-out: Minimal Inhibitory Concentrations (μM) S. aureus ATCC 29213
[6] = USA300, MIC, read-out: Minimal Inhibitory Concentrations (μM) S. aureus USA 300
[7] = read-out: Minimal Inhibitory Concentrations (μM) E. faecails, MIC
[8] = read-out: Minimal Inhibitory Concentrations (μM) MRSA NRS70, MIC
[9] = ATCC29213, read-out: Minimal Inhibitory Concentrations (μM) S. aureus ATCC 29213, MIC
[10] = USA300, read-out: Minimal Inhibitory Concentrations (μM) S. aureus USA 300, MIC
[11] = plasma binding, % Bound, human plasma
[12] = plasma binding, % Bound, mouse plasma

Row | SMILES | Minimal Inhibitory Concentrations (μM) S. aureus ΔClpP (S. aureus ΔClpP) | MIC (E. faecails; [3]) | MIC (MRSA NRS70; [4]) | MIC (S. aureus ATCC 29213; [5]) | MIC (S. aureus USA 300; [6]) | Human ([1]; human, 4 h, pH 7.4) | Mouse ([2]; mouse, 4 h, 10 μM, pH 7.4) | MIC (E. faecails; [7]) | MIC (MRSA NRS70; [8]) | MIC (S. aureus ATCC 29213; [9]) | MIC (S. aureus USA 300; [10]) | Human [1, 11] | Mouse [2, 12]
1 | Cc1cccc(C[C@H](NC(=O)Nc2ccc(Cl)cc2F)C(=O)N[C@@H]2C(=O)N3C[C@H](O)C[C@H]3C(=O)N3CCSC[C@H]3C(=O)N[C@@H](C)C(=O)N3C[C@H](C)C[C@H]3C(=O)O[C@H]2C)c1 [Compound 41, (S)-2-(3-(4-CHLORO-2-FLUOROPHENYL)UREIDO)-N-((6AS,8R,12S,13S,15AS,17R,21S,23AR)-8-HYDROXY-13,17,21-TRIMETHYL-6,11,15,20,23-PENTAOXOOCTADECAHYDRO-6H,11H,15H-DIPYRROLO[2,1-C:2′,1′-L][1,4]THIAZINO[3,4-I][1]OXA[4,7,10,13]TETRAAZACYCLOHEXADECIN-12-YL)-3-(M-TOLYL)PROPANAMIDE] ({NH(4-Cl-2-F-phenyl)-CO}-[Phe(3-Me)][aThr][Hyp][X1]A[Pro(4R-Me)]; ester 2-C) | >20 µM | 0.625 µM (≈ 0.536 µg/mL) | 0.156 µM (≈ 0.134 µg/mL) | 0.31 µM (≈ 0.266 µg/mL) | 0.31 µM (≈ 0.266 µg/mL) | 99.7 ± 9.7% | 99.9 ± 9.9% | – | – | – | – | – | –
2 | Cc1cccc(C[C@H](NC(=O)Nc2ccc(Cl)cc2F)C(=O)N[C@@H]2C(=O)N3C[C@H](OP(=O)(O)O)C[C@H]3C(=O)N3CCCC[C@H]3C(=O)N[C@@H](C)C(=O)N3C[C@H](C)C[C@H]3C(=O)O[C@H]2C)c1 [Compound 29, (2R,6S,8AS,14AS,16R,20S,21S,23AS)-20-((S)-2-(3-(4-CHLORO-2-FLUOROPHENYL)UREIDO)-3-(M-TOLYL)PROPANAMIDO)-2,6,21-TRIMETHYL-5,8,14,19,23-PENTAOXOOCTADECAHYDRO-1H,5H,14H,19H-PYRIDO[2,1-I]DIPYRROLO[2,1-C:2′,1′-L][1]OXA[4,7,10,13]TETRAAZACYCLOHEXADECIN-16-YL DIHYDROGEN PHOSPHATE] ({NH(4-Cl-2-F-phenyl)-CO}-[Phe(3-Me)][aThr][X5][Pip]A[Pro(4R-Me)]; ester 2-C) | >20 µM | – | – | – | – | – | – | 20 µM | 2.5 µM | 5 µM | 10 µM | 98.8 ± 8.8% | 96.9 ± 6.9%
3 | Cc1cccc(C[C@H](NC(=O)Nc2ccc3c(c2)OCCO3)C(=O)N[C@@H]2C(=O)N3C[C@H](O)C[C@H]3C(=O)N3CCCC[C@H]3C(=O)N[C@@H](C)C(=O)N3C[C@H](C)C[C@H]3C(=O)O[C@H]2C)c1 [Compound 28, (S)-2-(3-(2,3-DIHYDROBENZO[B][1,4]DIOXIN-6-YL)UREIDO)-N-((2R,6S,8AS,14AS,16R,20S,21S,23AS)-16-HYDROXY-2,6,21-TRIMETHYL-5,8,14,19,23-PENTAOXOOCTADECAHYDRO-1H,5H,14H,19H-PYRIDO[2,1-I]DIPYRROLO[2,1-C:2′,1′-L][1]OXA[4,7,10,13]TETRAAZACYCLOHEXADECIN-20-YL)-3-(M-TOLYL)PROPANAMIDE] ({X3-CO}-[Phe(3-Me)][aThr][Hyp][Pip]A[Pro(4R-Me)]; ester 2-C) | >20 µM | 0.625 µM (≈ 0.529 µg/mL) | 2.5 µM (≈ 2.11 µg/mL) | 2.5 µM (≈ 2.11 µg/mL) | 2.5 µM (≈ 2.11 µg/mL) | 92.9 ± 2.9% | 98.1 ± 8.1% | – | – | – | – | – | –
4 | Cc1ccc(NC(=O)N[C@@H](Cc2cccc(C)c2)C(=O)N[C@@H]2C(=O)N3CCC[C@H]3C(=O)N3CCCC[C@H]3C(=O)N[C@@H](C)C(=O)N3C[C@@H](C)C[C@H]3C(=O)O[C@H]2C)cc1 [Compound 45, (S)-3-(M-TOLYL)-2-(3-(P-TOLYL)UREIDO)-N-((2S,6S,8AS,14AS,20S,21S,23AS)-2,6,21-TRIMETHYL-5,8,14,19,23-PENTAOXOOCTADECAHYDRO-1H,5H,14H,19H-PYRIDO[2,1-I]DIPYRROLO[2,1-C:2′,1′-L][1]OXA[4,7,10,13]TETRAAZACYCLOHEXADECIN-20-YL)PROPANAMIDE] ({NH(4-Me-phenyl)-CO}-[Phe(3-Me)][aThr]P[Pip]A[Pro(4S-Me)]; ester 2-C) | >20 µM | – | – | – | – | – | – | 1.25 µM (≈ 0.982 µg/mL) | 1.25 µM (≈ 0.982 µg/mL) | 1.25 µM (≈ 0.982 µg/mL) | 10 µM (≈ 7.86 µg/mL) | 97.3 ± 0.3% | 92.1 ± 1.3%
